Tests used:
[1] = tested on: Caco2 cells; experiment: Heme content (fluorescence assay) in Caco2 cells; format: cell-based, human; settings: FLVCR1a-silenced Caco2 cells, 5 mM 5-ALA+0.5 mM SA
Protocol: (A) Heme content in Caco2 cells treated with 5 mM 5-ALA (black bars and white bars) or with 5 mM 5-ALA+0.5 mM SA (light grey outlined bars) for the indicated time points. […] Values are expressed as relative fluorescence intensity. Data represent mean±SEM, n=2. For statistical analyses, a two-way analysis of variance was used, followed by the Bonferroni correction for multiple group comparisons; **=p<0.01, ***=p<0.001. 5-ALA, 5-aminolevulinic acid; SA, succinylacetone. (B) Intracellular 5-ALA levels. […] Values are expressed as peak area/μg proteins. Data represent mean±SEM of n=4 wells pooled from two independent experiments. For statistical analyses, an unpaired Student's t-test was used; **=p<0.01. 5-ALA, 5-aminolevulinic acid. […] Values are expressed as peak area/μg proteins. […] Transcript abundance, normalized to beta-actin mRNA expression, is expressed as a fold increase over a calibrator sample. […] Band intensities were measured by densitometry and normalized to vinculin expression. […]
Intracellular heme concentration was measured using a fluorescence assay, as previously reported (Sinclair et al., 2001). […] Fluorescence (wavelength: excitation 405 nm-emission 660-720 nm) of the resultant protoporphyrin was assessed on a Glomax Multi Detection System (Promega Corporation, Madison WI, USA).
The endogenous protoporphyrin content (measured in parallel unheated samples in oxalic acid) was subtracted. […]

[2] = tested on: FLVCR1a-overexpressing Caco2 cells; experiment: TCA cycle flux in Caco2 cells overexpressing FLVCR1a; format: cell-based, human
Protocol: (A) TCA cycle flux in Caco2 cells expressing a scramble shRNA untreated or treated with 25 μM hemin for 2 hours. Moreover, the TCA cycle flux of untreated FLVCR1a-silenced Caco2 cells is reported for comparison. Results are expressed as pmol CO2/h/mg protein. Data represent mean±SEM, n=3. For statistical analyses, an unpaired Student's t-test was used to compare the two matched groups; *=p<0.05, ***=p<0.001. […] Results are expressed as pmol CO2/h/mg protein. Data represent mean±SEM, n=3. For statistical analyses, an unpaired Student's t-test was used; *=p<0.05, **=p<0.01. (C) TCA cycle flux in Caco2 cells overexpressing FLVCR1a (indicated as FLVCR1a+) are compared to cells stably transduced with an empty vector. Moreover, the TCA cycle flux of FLVCR1a-overexpressing Caco2 cells treated with 25 μM hemin or 0.5 mM SA for 2 hours is reported. Results are expressed as pmol CO2/h/mg protein. Data represent mean±SEM, n=3. For statistical analyses, an unpaired Student's t-test was used to compare the two matched groups; *=p<0.05, **=p<0.01. SA, succinylacetone. […]
(§1) The glucose flux through TCA cycle was measured by radiolabeling cells with 2 μCi/ml [6-^14C]-glucose (55 mCi/mmol; PerkinElmer, Waltham, MA, USA, catalog n° NEC045X). […] The amount of glucose transformed into CO2 through the TCA cycle was calculated as described (Riganti et al., 2004) and expressed as pmoles CO2/h/mg cell proteins.

[3] = tested on: lung tumor LLC cells; experiment: LLC cell viability (CellTiter-Fluor) as readout of proliferation; format: cell-based, murine; settings: 0.5 mM SA at day 0, no medium refresh
[4] = tested on: tumor cell; settings: background art; cited from earlier work
[5] = tested on: Caco2 cells; experiment: TCA cycle flux in Caco2 cells; format: cell-based, human; settings: control (scramble shRNA) Caco2 cells, 25 μM hemin for 2 hours
Description: TCA cycle flux is reported in the centre of the figure and expressed as pmol CO2/h/mg protein. Data represent mean±SEM, n=3. For statistical analyses, an unpaired Student's t-test was used. **=p<0.01. Moreover, TCA cycle enzymes activities are reported in boxes and expressed as mU/mg mitochondrial proteins. Data represent mean±SEM, n=3. For statistical analyses, an unpaired Student's t-test was used; *=p<0.05, ***=p<0.001. […] Results are expressed as pmol CO2/h/mg protein. Data represent mean±SEM, n=3. For statistical analyses, an unpaired Student's t-test was used; *=p<0.05, **=p<0.01.
(A) TCA cycle flux in Caco2 cells expressing a scramble shRNA untreated or treated with 25 μM hemin for 2 hours. Moreover, the TCA cycle flux of untreated FLVCR1a-silenced Caco2 cells is reported for comparison. Results are expressed as pmol CO2/h/mg protein. Data represent mean±SEM, n=3. […] Results are expressed as pmol CO2/h/mg protein. […] Results are expressed as pmol CO2/h/mg protein. […]
as §1

Row | Compound | accumulation of de-novo synthesized heme [1] | reduction of the TCA cycle flux in FLVCR1a-overexpressing cells ([2]; 0.5 mM SA for 2 hours) | cell proliferation (cell viability) [3] | tumor cell survival and proliferation [4] | TCA cycle flux [5] | reduction of the TCA cycle flux in FLVCR1a-overexpressing cells ([2]; 25 μM hemin for 2 hours)
1 | CC(=O)CC(=O)CCC(=O)O [SA, 4-6 Dioxoheptanoic acid] | blunted | reverted | effects on cell proliferation were similar | reduce tumor cell survival and proliferation |  | 
2 | Hemin Ferriprotoporphyrin IX chloride [reference compound] |  |  |  |  | increased TCA cycle flux | reverted

From US20240285670A1, “THERAPEUTIC TREATMENT OF TUMORS BY BLOCKING THE HEME SYNTHESIS-EXPORT AXIS” (Università degli Studi di Torino, priority 2021, published 2024)
